≈ marks a conversion by molar mass, not a printed value. Where a SMILES comes first, the peptide text is derived from it. Bridges are numbered along the chain shown (N, C = ends).
Columns and labels:
E. coli strains = format: cell-based
Description: (§1) In order to determine the MIC values of the peptides, growth and inhibition of various bacteria were monitored after treatment with the peptides of the invention (Table B). E. coli, K. pneumoniae, P. aeruginosa and Salmonella bacteria were cultured at 37° C. and at 5×10^6 CFU/ml in a standard 96-well-plate, in Mueller Hinton broth. […] The growth of the bacteria was continuously monitored via spectrophotometry at a wave-length of 625 nm. As bacterial growth progresses, Optical density at 625 nm (OD625 nm) values increase, and where the bacterial growth is inhibited, OD625 nm values remain constant. The experimental system and parameters described herein were used to determine the MIC values of OMN3, OMN5, OMN8 and OMN9 on various bacteria strains (Table B). Using the standard MHB MIC testing for antibiotic activity

P. aeruginosa BAA-2795 = format: cell-based, Pseudomonas aeruginosa
Description: as §1

P. aeruginosa BAA-2796 = format: cell-based, Pseudomonas aeruginosa
Description: as §1

E. coli ESBL BAA-198 = format: cell-based, Escherichia coli
Description: as §1

E. coli CR BAA-2452 = format: cell-based, Escherichia coli
Description: as §1

[1] = system: E. coli Sens. 25922 QC strain; format: cell-based, Escherichia coli
Description: as §1

[2] = system: K. pneu Sens. 700603 QC strain; format: cell-based, K. pneumoniae
Description: as §1

K. pneu NDM1 BAA-2473 = format: cell-based, Klebsiella pneumoniae
Description: as §1

K . pneu KPC + BAA-2344 = format: cell-based, Klebsiella pneumoniae
Description: as §1

MIC for E. coli strains (E. coli strains): 4 to 8 µg/mL
MIC (P. aeruginosa BAA-2795): 64 µg/mL (≈ 15.4 µM)
MIC (P. aeruginosa BAA-2796): 64 µg/mL (≈ 15.4 µM)
MIC (E. coli ESBL BAA-198): 4 µg/mL (≈ 0.963 µM)
MIC (E. coli CR BAA-2452): 8 µg/mL (≈ 1.93 µM)
MIC [1]: 8 µg/mL (≈ 1.93 µM)
MIC [2]: 32 µg/mL (≈ 7.7 µM)
MIC (K. pneu NDM1 BAA-2473): 32 µg/mL (≈ 7.7 µM)
MIC (K . pneu KPC + BAA-2344): 64 µg/mL (≈ 15.4 µM)
Structure (SMILES): CC[C@H](C)[C@@H]1NC(=O)CNC(=O)[C@H](CC(N)=O)NC(=O)[C@H](CCCNC(=N)N)NC(=O)[C@H]([C@@H](C)CC)NC(=O)[C@H](CC(N)=O)NC(=O)[C@H](CCCNC(=N)N)NC(=O)CNC(=O)[C@H](C(C)C)NC(=O)[C@H](CCCCN)NC(=O)[C@H](CCC(=O)O)NC(=O)[C@H]([C@@H](C)CC)NC(=O)[C@H](CCCCN)NC(=O)[C@H](CCCCN)NC(=O)[C@H](Cc2ccccc2)NC(=O)[C@H]([C@@H](C)CC)NC(=O)[C@H](CCCCN)NC(=O)[C@H](Cc2c[nH]c3ccccc23)NC(=O)[C@H](CCCCN)NC(=O)[C@@H](NC(=O)[C@@H](N)CCSC)CSSC[C@@H](C(=O)O)NC(=O)[C@H](CC(C)C)NC(=O)[C@H](C)NC(=O)[C@H](CCCCN)NC(=O)[C@H](C)NC(=O)[C@H](CCC(=O)O)NC(=O)CNC(=O)[C@H](CC(C)C)NC(=O)[C@H](C(C)C)NC(=O)[C@H](C)NC(=O)[C@H](C(C)C)NC(=O)[C@H](C)NC(=O)[C@@H]2CCCN2C(=O)CNC(=O)[C@H](C)NC(=O)[C@H](CCCCN)NC(=O)[C@H]([C@@H](C)CC)NC1=O [OMN9] (H-MCKWKIFKKIEKVGRNIRNGIIKAGPAVAVLGEAKALC-OH; disulfide 2-38; N-terminus and C-terminus assumed)
